Measurements taken from ChEMBL document CHEMBL3039007, “Structure-based identification of OATP1B1/3 inhibitors” (Mol Pharmacol, 2013).
Positions of bridges follow the written chain, without caps; N, C: chain ends. Non-standard residues stand in square brackets, D forms with d. Residues, ends and D or L forms follow the SMILES beside them. *: point of attachment. Ileψ(thiazoline)Cys = CC[C@H](C)[C@H](N)C1=N[C@H](C(=O)*)CS1; dOrn = NCCC[C@@H](N)C(=O)O

Legend:
[1] = biological target: T1, Solute carrier organic anion transporter family member 1B1 (Homo sapiens, UniProt Q9Y6L6); details: chinese hamster, cho, 10 µM
T1 sequence (Q9Y6L6 whole entry): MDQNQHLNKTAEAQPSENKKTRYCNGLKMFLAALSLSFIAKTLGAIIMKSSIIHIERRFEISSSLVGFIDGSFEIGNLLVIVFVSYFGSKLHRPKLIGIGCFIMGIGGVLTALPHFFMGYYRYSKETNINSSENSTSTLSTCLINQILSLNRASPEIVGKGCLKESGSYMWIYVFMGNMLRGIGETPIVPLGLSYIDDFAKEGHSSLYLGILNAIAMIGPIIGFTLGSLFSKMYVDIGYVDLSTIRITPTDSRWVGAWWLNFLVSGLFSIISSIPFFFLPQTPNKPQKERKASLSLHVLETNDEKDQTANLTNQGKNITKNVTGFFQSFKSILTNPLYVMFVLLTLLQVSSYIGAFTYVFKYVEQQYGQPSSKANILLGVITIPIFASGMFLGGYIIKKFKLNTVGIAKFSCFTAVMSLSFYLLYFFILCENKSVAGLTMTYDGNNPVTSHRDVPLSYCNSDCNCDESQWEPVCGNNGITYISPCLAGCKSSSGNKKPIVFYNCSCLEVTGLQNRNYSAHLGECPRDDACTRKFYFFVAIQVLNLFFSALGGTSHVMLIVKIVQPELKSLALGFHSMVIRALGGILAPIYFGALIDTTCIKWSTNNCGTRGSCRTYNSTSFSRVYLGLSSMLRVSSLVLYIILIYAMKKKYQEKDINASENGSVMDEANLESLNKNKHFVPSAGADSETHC

[2] = biological target: T2, Solute carrier organic anion transporter family member 1B3 (Homo sapiens, UniProt Q9NPD5); details: chinese hamster, cho, 10 µM
T2 sequence (Q9NPD5 whole entry): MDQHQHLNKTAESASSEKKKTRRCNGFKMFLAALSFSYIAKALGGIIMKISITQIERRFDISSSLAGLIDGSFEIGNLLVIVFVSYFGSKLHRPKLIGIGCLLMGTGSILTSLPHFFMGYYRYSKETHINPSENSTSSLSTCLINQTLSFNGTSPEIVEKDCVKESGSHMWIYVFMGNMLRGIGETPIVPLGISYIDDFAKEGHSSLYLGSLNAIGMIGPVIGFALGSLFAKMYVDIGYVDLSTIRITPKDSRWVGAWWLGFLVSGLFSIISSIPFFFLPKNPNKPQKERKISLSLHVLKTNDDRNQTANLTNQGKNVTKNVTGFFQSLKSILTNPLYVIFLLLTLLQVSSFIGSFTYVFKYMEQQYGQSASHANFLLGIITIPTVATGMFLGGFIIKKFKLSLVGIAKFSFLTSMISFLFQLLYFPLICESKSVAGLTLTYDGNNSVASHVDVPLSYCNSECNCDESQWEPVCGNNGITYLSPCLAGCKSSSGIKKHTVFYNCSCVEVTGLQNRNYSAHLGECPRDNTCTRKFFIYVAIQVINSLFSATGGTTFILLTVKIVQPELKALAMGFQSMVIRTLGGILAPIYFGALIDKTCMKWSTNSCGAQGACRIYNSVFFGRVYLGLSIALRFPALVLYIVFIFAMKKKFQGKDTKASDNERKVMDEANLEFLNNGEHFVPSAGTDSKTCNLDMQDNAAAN

| SMILES | residual activity [1] [%] | residual activity [2] [%] |
| --- | --- | --- |
| CC1=CC(=O)C2=C(C)C[C@H](O)[C@@H]3[C@H](OC(=O)[C@H]3C)[C@H]12 [AUSTRICINE] | 102.6 | 86.81 |
| COc1ccc(C(=O)CC(=O)c2ccc(C(C)(C)C)cc2)cc1 [AVOBENZONE] | 124 | 103 |
| C#CCCCCCCCCCCCC(O)CC(O)COC(C)=O (stereo not given) [AVOCADYNE ACETATE] | 144.6 | 109.9 |
| C#CCCCCCCCCCCCC(O)CC(O)CO (stereo not given) [AVOCADYNE] | 96.1 | 124.3 |
| C#CCCCCCCCCCCCC(=O)CC(O)COC(C)=O (stereo not given) [AVOCADYNONE ACETATE] | 124.8 | 100.5 |
| C=CCCCCCCCCCCCC(O)CC(O)COC(C)=O (stereo not given) [AVOCATIN A] | 125.1 | 99.6 |
| Nc1ncn([C@@H]2O[C@H](CO)[C@@H](O)[C@H]2O)c(=O)n1 [AZACITIDINE] | 108.4 | 96.87 |
| C/C=C(\C)C(=O)O[C@H]1C[C@@H](OC(C)=O)[C@@]2(C(=O)OC)CO[C@H]3[C@@H](O)[C@@](C)([C@]45O[C@@]4(C)[C@@H]4C[C@H]5O[C@@H]5OC=C[C@@]54O)[C@H]4[C@]1(CO[C@]4(O)C(=O)OC)[C@@H]32 [AZADIRACHTIN A] | 51.12 | 74.42 |
| O=C(CCCN1CCN(c2ccccn2)CC1)c1ccc(F)cc1 [AZAPERONE] | 88.32 | 108.2 |
| [N-]=[N+]=CC(=O)OC[C@H](N)C(=O)O [AZASERINE] | 100.4 | 107.6 |
| Cn1cnc([N+](=O)[O-])c1Sc1ncnc2nc[nH]c12 [AZATHIOPRINE] | 128.4 | 107.3 |
| O=C(O)CCCCCCCC(=O)O [AZELAIC ACID] | 100.4 | 107.2 |
| CN1CCCC(n2nc(Cc3ccc(Cl)cc3)c3ccccc3c2=O)CC1.Cl (stereo not given) [AZELASTINE HYDROCHLORIDE] | 43.45 | 134.9 |
| CC1(C)S[C@@H]2[C@H](NC(=O)[C@H](NC(=O)N3CCNC3=O)c3ccccc3)C(=O)N2[C@H]1C(=O)[O-].[Na+] [AZLOCILLIN SODIUM] | 96.91 | 85.12 |
| c1ccc(/N=N/c2ccccc2)cc1 [AZOBENZENE] | 216.3 | 112.1 |
| CCOC(=O)OC(C)OC(=O)[C@@H]1N2C(=O)[C@@H](NC(=O)[C@H](N)c3ccccc3)[C@H]2SC1(C)C.Cl (stereo not given in full) [BACAMPICILLIN HYDROCHLORIDE] | 46.45 | 80.61 |
| CC[C@H](C)[C@H](N)C1=N[C@H](C(=O)N[C@@H](CC(C)C)C(=O)N[C@H](CCC(=O)O)C(=O)N[C@H](C(=O)N[C@H]2CCCCNC(=O)[C@H](CC(N)=O)NC(=O)[C@@H](CC(=O)O)NC(=O)[C@H](Cc3cnc[nH]3)NC(=O)[C@@H](Cc3ccccc3)NC(=O)[C@H]([C@@H](C)CC)NC(=O)[C@@H](CCCN)NC2=O)[C@@H](C)CC)CS1 [BACITRACIN] ({Ileψ(thiazoline)Cys}-L[dE]IK[dOrn]I[dF]H[dD]N; lactam 4-C) | 78.2 | 77.52 |
| NCC(CC(=O)O)c1ccc(Cl)cc1 (stereo not given) [BACLOFEN] | 80.8 | 102.2 |
| COc1cc(C)c(C(=O)Oc2cc(C)c(C(=O)O)c(O)c2C)c(O)c1C=O [BAEOMYCESIC ACID] | 23.01 | 46.77 |
| O=c1cc(-c2ccccc2)oc2cc(O)c(O)c(O)c12 [BAICALEIN] | 91.06 | 90.2 |
| CCCCCCCCCCCCCCCCCCOCC(O)CO (stereo not given) [BATILOL] | 92.94 | 108.3 |
| COc1cc2c3cc1Oc1cc(ccc1O)CC1c4c(cc(OC)c(O)c4Oc4ccc(cc4)CC3N(C)CC2)CCN1C (stereo not given) [BEBEERINE] | 53.34 | 74.29 |
| CCC(=O)OCC(=O)[C@@]1(OC(=O)CC)[C@@H](C)C[C@H]2[C@@H]3CCC4=CC(=O)C=C[C@]4(C)[C@@]3(Cl)[C@@H](O)C[C@@]21C [BECLOMETHASONE DIPROPIONATE] | 41.53 | 14.78 |

| SMILES | residual activity [1] [%] | residual activity [2] [%] |
| --- | --- | --- |
| NC[C@H]1O[C@H](O[C@H]2[C@H](O)[C@@H](O[C@H]3O[C@H](CO)[C@@H](O)[C@H](N)[C@H]3O)[C@H](N)C[C@@H]2N)[C@H](N)[C@@H](O)[C@@H]1O.O=S(=O)(O)O [BEKANAMYCIN SULFATE] | 101.9 | 118.1 |
| CCOC(=O)[C@H](CCc1ccccc1)N[C@H]1CCc2ccccc2N(CC(=O)O)C1=O.Cl [BENAZEPRIL HYDROCHLORIDE] | 101.2 | 84.15 |
| CNC(=O)Oc1cccc2c1OC(C)(C)O2 [BENDIOCARB] | 88.1 | 84.46 |
| CC(Cc1cccc(C(F)(F)F)c1)NCCOC(=O)c1ccccc1.Cl (stereo not given) [BENFLUOREX HYDROCHLORIDE] | 93.54 | 87.71 |
| CCCCN(CC)c1c([N+](=O)[O-])cc(C(F)(F)F)cc1[N+](=O)[O-] [BENFLURALIN] | 96.31 | 100.4 |
| Cl.NC(CO)C(=O)NNCc1ccc(O)c(O)c1O (stereo not given) [BENSERAZIDE HYDROCHLORIDE] | 93.51 | 93.94 |
| CC(C)N1C(=O)c2ccccc2NS1(=O)=O [BENTAZON] | 109.9 | 96.3 |
| Cl.N/C(=N\C(=O)c1nc(Cl)c(N)nc1N)NCc1ccccc1 [BENZAMIL HYDROCHLORIDE] | 93.84 | 105 |
| O=C1c2ccccc2-c2cccc3cccc1c23 [BENZANTHRONE] | 127.3 | 69.74 |
| CCOC(=O)c1ccc(N)cc1 [BENZOCAINE] | 129.5 | 100.6 |
| NS(=O)(=O)c1cc2c(cc1Cl)N=C(CSCc1ccccc1)NS2(=O)=O [BENZTHIAZIDE] | 74.12 | 56.86 |
| O=C(OCc1ccccc1)c1ccccc1 [BENZYL BENZOATE] | 125.1 | 74.09 |
| S=C=NCc1ccccc1 [BENZYL ISOTHIOCYANATE] | 170.7 | 101.9 |
| Cl.NNCc1ccccc1 [BENZYLHYDRAZINE HYDROCHLORIDE] | 122.4 | 108.9 |
| CC(C)COCC(CN(Cc1ccccc1)c1ccccc1)N1CCCC1.Cl.O (stereo not given) [BEPRIDIL HYDROCHLORIDE] | 124.1 | 131.3 |
| COc1ccc2cc3[n+](cc2c1OC)CCc1cc2c(cc1-3)OCO2.[Cl-] [BERBERINE CHLORIDE] | 110.4 | 108.4 |
| COc1c2ccoc2cc2oc(=O)ccc12 [BERGAPTEN] | 93.84 | 97.44 |
| COc1c(O)cc2c(c1O)[C@@H]1O[C@H](CO)[C@@H](O)[C@H](O)[C@H]1OC2=O [BERGENIN] | 14.59 | 94.52 |
| C=C1CC/C=C(\C)CC[C@@H]2[C@@H]1CC2(C)C [BETA-CARYOPHYLLENE] | 99.94 | 88.67 |
| COc1cc([C@@H]2c3cc4c(c(O)c3C[C@H]3COC(=O)[C@@H]32)OCO4)cc(OC)c1OC [BETA-PELTATIN A] | 78.87 | 101.7 |
| C[N+](C)(C)CC(=O)O.[Cl-] [BETAINE HYDROCHLORIDE] | 82.22 | 113.7 |
| CCCCC(=O)O[C@]1(C(=O)CO)[C@@H](C)C[C@H]2[C@@H]3CCC4=CC(=O)C=C[C@]4(C)[C@@]3(F)[C@@H](O)C[C@@]21C [BETAMETHASONE VALERATE] | 38.6 | 10.24 |
